Among the test systems are COLO 205 colon; LOX IMVI melanoma; OVCAR-8 ovarian; UO-31 renal; SF-268 CNS; SK-OV-3 ovarian; A498 renal; NCI/ADR-RES ovarian; M14 melanoma; DU-145 prostate.
Common to all, as to assay: DTP human tumour cell line panel, 48 h

Results on eight compounds are retold here after PubChem BioAssay (NCI).

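Step 1: Grow cells in 96-well plates. Step 2: Expose to compound for 48 hours at 5 concentrations. Step 3: Interpolate endpoints linearly; if unreached, use highest concentration. Here, GI50 denotes the concentration required for 50% inhibition of growth. TGI denotes the concentration required for complete inhibition of growth.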

Turning to `CC1=C([Se]CC(OC(=O)[C@@H](CSSC(C)(C)C)NC(=O)C(C)(C)C)C(=O)NCCCCCC(=O)OCc2ccccc2)C(=O)c2ccccc2C1=O` (stereo not given in full), the GI50 (commonly the concentration giving 50% growth inhibition) with COLO 205 colon was 1800 nM; with LOX IMVI melanoma, 2590 nM; in the test on OVCAR-8 ovarian, 2010 nM; in the test on UO-31 renal, 1470 nM; with SF-268 CNS, 1910 nM; with SK-OV-3 ovarian, 1560 nM. Besides, the GI50 in the test on A498 renal was 1.63 µM; with NCI/ADR-RES ovarian, 3.4 µM; in the test on M14 melanoma, 2.05 µM; with DU-145 prostate, 2.13 µM. For the same compound, the TGI (as a rule, the concentration giving total growth inhibition) amounted to 3.47 µM in the test with COLO 205 colon; 7.62 µM in the test with LOX IMVI melanoma; 3.78 µM with OVCAR-8 ovarian; 3.16 µM in the test with UO-31 renal; 3.51 µM with SF-268 CNS; 2.92 µM in the test on SK-OV-3 ovarian. In addition, the TGI was 4.77 µM with A498 renal, 11.4 µM in the test with NCI/ADR-RES ovarian, 4.04 µM with M14 melanoma and 4.51 µM in the test on DU-145 prostate.
On to `Nc1ccn(C2OC(COP(=O)(O)O)C(O)C2O)c(=O)n1` (stereo not given), for which the total growth inhibition concentration (TGI) in the test with COLO 205 colon, with LOX IMVI melanoma, in the test with OVCAR-8 ovarian, in the test with UO-31 renal, in the test on SF-268 CNS and in the test on SK-OV-3 ovarian was > 100 µM each time. In addition, the TGI was > 100 µM in the test on A498 renal, > 100 µM in the test on NCI/ADR-RES ovarian, > 44.9 µM with M14 melanoma and > 25.2 µM in the test with DU-145 prostate.
Regarding `CCOC(=O)CCc1c(C)c2ccc(O)cc2oc1=O`, the total growth inhibition concentration (TGI) in the test on COLO 205 colon, in the test with LOX IMVI melanoma, with OVCAR-8 ovarian, in the test on SF-268 CNS, in the test with A498 renal and in the test on NCI/ADR-RES ovarian was > 100 µM each time. Further, the total growth inhibition concentration (TGI) with M14 melanoma and with DU-145 prostate was > 100 µM each time.
As to `CCN(CC)CCCC(C)N/C(c1cccc(OC)c1)=c1\c(=O)[nH]n(-c2c3ccccc3nc3ccccc23)c(=O)\c1=C(/NC(C)CCCN(CC)CC)c1cccc(OC)c1` (stereo not given), the GI50 in the test with COLO 205 colon is 1220 nM; in the test on OVCAR-8 ovarian, 937 nM; in the test on UO-31 renal it was 1310 nM; in the test on SF-268 CNS, 1400 nM; in the test with SK-OV-3 ovarian, 2230 nM; in the test on A498 renal, 1.52 µM. The figures for the GI50 in the test with NCI/ADR-RES ovarian, with M14 melanoma and with DU-145 prostate were 1.79 µM, 2.01 µM and 1.44 µM, respectively. Besides, the TGI with COLO 205 colon came to 2.79 µM; in the test on OVCAR-8 ovarian it was 7.77 µM; with UO-31 renal, 3.61 µM; in the test with SF-268 CNS, 4.87 µM; with SK-OV-3 ovarian, 7.2 µM; in the test on A498 renal it was 2.93 µM. In addition, the concentration for total growth inhibition (TGI) in the test with NCI/ADR-RES ovarian amounted to 8.91 µM; in the test with M14 melanoma, 4.1 µM; in the test on DU-145 prostate it was 8.86 µM.
As for `Fc1ccc(Nc2ccc3cc(OCCCN4CCOCC4)ccc3n2)cc1F`, the GI50 in the test with COLO 205 colon is 1960 nM; in the test on LOX IMVI melanoma it was 1600 nM; in the test with OVCAR-8 ovarian, 5510 nM; in the test on UO-31 renal it was 2240 nM; in the test on SF-268 CNS, 6550 nM; in the test on SK-OV-3 ovarian, 8240 nM. Moreover, the results for the GI50 in the test with A498 renal, in the test on NCI/ADR-RES ovarian and in the test with DU-145 prostate were 2.21 µM, 4.45 µM and 6.85 µM, respectively. In addition, the total growth inhibition concentration (TGI) is 3.84 µM with COLO 205 colon; 3.09 µM with LOX IMVI melanoma; > 100 µM with OVCAR-8 ovarian; 6.84 µM in the test with UO-31 renal; > 100 µM with SF-268 CNS; > 100 µM with SK-OV-3 ovarian. The TGI in the test with A498 renal was 7.64 µM; in the test on NCI/ADR-RES ovarian, > 100 µM; in the test with DU-145 prostate, > 100 µM.
On to `N#Cc1c(N)nc(N2CCOCC2)c(C#N)c1-c1cccc(O)c1`, for which the GI50 in the test with COLO 205 colon is 69300 nM; in the test on LOX IMVI melanoma it was > 100000 nM; in the test on OVCAR-8 ovarian it was > 100000 nM; in the test with SF-268 CNS, > 100000 nM; in the test with SK-OV-3 ovarian it was 70900 nM; in the test on A498 renal, 14.8 µM. Further, the GI50 in the test with NCI/ADR-RES ovarian, with M14 melanoma and in the test with DU-145 prostate was > 100 µM each time. In addition, the concentration for total growth inhibition (TGI) was > 100 µM in the test on COLO 205 colon; > 100 µM in the test with LOX IMVI melanoma; > 100 µM in the test with OVCAR-8 ovarian; > 100 µM in the test on SF-268 CNS; > 100 µM in the test on SK-OV-3 ovarian; 58.3 µM in the test on A498 renal. Besides, the TGI in the test with NCI/ADR-RES ovarian, in the test with M14 melanoma and with DU-145 prostate was > 100 µM in each case.
For `COc1cc(/C=C2\C[C@H]3[C@@H]4CC=C5C[C@@H](OC(C)=O)CC[C@]5(C)[C@H]4CC[C@]3(C)[C@H]2OC(C)=O)ccc1OCCCn1ccnc1`, the GI50 in the test with COLO 205 colon was 11600 nM; with LOX IMVI melanoma it was 7460 nM; in the test on OVCAR-8 ovarian, 10700 nM; in the test with UO-31 renal it was 12700 nM; in the test on SF-268 CNS, 9630 nM; in the test with A498 renal it was 7.19 µM. Further, the GI50 in the test on NCI/ADR-RES ovarian was 11.3 µM; with M14 melanoma, 8.85 µM; with DU-145 prostate, 9.14 µM. Also, the TGI was 38.5 µM in the test with COLO 205 colon; 14.9 µM in the test on LOX IMVI melanoma; 24.7 µM in the test on OVCAR-8 ovarian; > 34 µM in the test with UO-31 renal; 21.6 µM in the test with SF-268 CNS; 15 µM in the test with A498 renal. In addition, the TGI in the test on NCI/ADR-RES ovarian is 28.8 µM; in the test on M14 melanoma, 16.6 µM; in the test on DU-145 prostate, 18.7 µM.
Regarding `CCOC(=O)c1ccc2[nH]c(Cc3[nH]c4ccc(C(=O)OCC)cc4c3C)c(C)c2c1`, the GI50 was 2510 nM in the test with COLO 205 colon; 384 nM with LOX IMVI melanoma; 1210 nM with OVCAR-8 ovarian; 7260 nM in the test with UO-31 renal; 1410 nM in the test on SF-268 CNS; 2040 nM in the test on SK-OV-3 ovarian. The GI50 is 5.45 µM with A498 renal, 2.52 µM with NCI/ADR-RES ovarian, 5.98 µM in the test with M14 melanoma and 3.37 µM in the test with DU-145 prostate. Moreover, the TGI with COLO 205 colon was found to be 21.2 µM; in the test with LOX IMVI melanoma, 5.72 µM; in the test with OVCAR-8 ovarian, 11.7 µM; in the test on UO-31 renal, 30.8 µM; in the test on SF-268 CNS, 15.4 µM; in the test on SK-OV-3 ovarian, 16.6 µM. In addition, the TGI with A498 renal was found to be 23.1 µM; in the test on NCI/ADR-RES ovarian, 18.5 µM; with M14 melanoma, 34.1 µM; in the test with DU-145 prostate, 17.5 µM.
